Reference: PubChem BioAssay (NCI)
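48-hour exposure; five concentrations; linearly interpolated endpoints. GI50 is the concentration that inhibits growth by half. At the TGI there is no net growth.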

Tests used:
Experiment in all cases: NCI anticancer screen, dose series, 48 h
[1] = test system: ACHN renal
[2] = test system: M14 melanoma
[3] = test system: NCI-H226 lung
[4] = test system: OVCAR-5 ovarian
[5] = test system: SK-OV-3 ovarian
[6] = test system: UACC-257 melanoma
[7] = test system: EKVX NSCLC
[8] = test system: BT-549 breast
[9] = test system: T-47D breast
[10] = test system: NCI/ADR-RES ovarian

SMILES	TGI [1]	TGI [2]	TGI [3]	TGI [4]	TGI [5]	TGI [6]	TGI [7]	GI50 [1]	GI50 [7]	GI50 [2]	GI50 [5]	GI50 [6]	TGI [8]	TGI [9]	GI50 [8]	GI50 [4]	GI50 [3]	GI50 [9]	GI50 [10]	TGI [10]
c1ccc(COC2(OCc3ccccc3)CC3OC2C2NN=NC32)cc1 (centres undefined)	> 100 µM	39.4 µM	39.3 µM	> 100 µM	> 100 µM	36.2 µM														
O=C(c1ccc(Cl)cc1)c1ccc(OCCSCCCCCCCCCCSCCOc2ccc(C(=O)c3ccc(Cl)cc3)cc2)cc1	> 100 µM		> 100 µM	> 100 µM	> 100 µM	> 100 µM	> 100 µM													
C1=Nc2ccccc2C=Nc2ccccc2C=Nc2ccccc2C=Nc2ccccc21.[Cl-].[Pt+2]	49 µM	> 100 µM			65.9 µM		> 100 µM	19 µM	37.5 µM	30.2 µM	24.4 µM									
COC(=O)C1C(OCc2ccccc2)C2CCC1(OC)C=C2C (centres undefined)	> 100 µM	> 100 µM	> 100 µM	> 100 µM	> 100 µM	> 100 µM	> 100 µM													
CSc1ncnc2c1CCN2		> 100 µM			> 100 µM	> 100 µM	> 100 µM		> 100 µM	> 100 µM	> 100 µM	> 100000 nM								
C=CC1=C(C)C2=NC1=CC1=NC(=CC3=C(C)C4=C(O)C(C(=O)OC)C(=C5NC(=C2)C(C)C5CCC(=O)OC)C4=N3)C(CC)=C1C (centres undefined)	> 100 µM	> 100 µM	> 100 µM	> 100 µM	> 100 µM	> 100 µM	> 100 µM						> 100 µM	> 100 µM						
O=c1c2ccccc2nc(-c2cccc(Cl)c2)n1NCC1(O)OCC(O)C(O)C1O (centres undefined)	> 100 µM	> 100 µM	> 100 µM	> 100 µM	> 100 µM	> 100 µM	> 100 µM													
Cc1ccc(Sc2sc(-c3ccccc3)nc2[P+](c2ccccc2)(c2ccccc2)c2ccccc2)cc1	0.933 µM	1.3 µM		1.45 µM	0.863 µM	1.11 µM	0.932 µM	0.268 µM	0.266 µM	0.326 µM	0.282 µM	328 nM	1.18 µM		320 nM	400 nM				
CC(=O)/C=C/c1ccc(C)cc1	> 100 µM	> 100 µM	> 100 µM	> 100 µM	> 100 µM	> 100 µM	> 100 µM													
CC1(C)CC2(C)CC1CC2NC(=O)CCN1CCOCC1 (centres undefined)	> 100 µM	> 100 µM	> 100 µM	> 100 µM	> 100 µM	> 100 µM	> 100 µM						> 100 µM	> 100 µM						
O=C1CS/C(=N\S(=O)(=O)c2ccc(N3N=C4c5ccccc5CC4C3c3ccc(Cl)cc3)cc2)N1c1ccccc1 (centres undefined)	66.5 µM	> 100 µM	> 100 µM		95.2 µM	> 100 µM	> 100 µM	27.7 µM	43.2 µM	59.4 µM	31.4 µM	92900 nM	> 100 µM	> 100 µM	35600 nM		45.1 µM	41.7 µM		
COc1cc(/C=C(\OC(C)=O)c2ccc3c(c2)OCO3)cc(OC)c1OC	69.3 µM	39.4 µM	30.7 µM	> 100 µM	66.8 µM	34 µM	54.9 µM													
Cc1ccc(Oc2ccc([N+](=O)[O-])cc2[N+](=O)[O-])c(C)c1	> 100 µM	> 100 µM	> 100 µM	> 100 µM	> 100 µM	99.6 µM	> 100 µM													
Clc1ccc(Nc2ccnc(NCCCNc3ccnc4cc(Cl)ccc34)n2)cc1	3.04 µM			3.09 µM	2.94 µM	3.43 µM		1.57 µM			1.57 µM	1870 nM	3.67 µM		1740 nM	1680 nM			1760 nM	3.38 µM
NC(CC1=CCC=CC1)C(=O)O (centres undefined)	> 100 µM	> 100 µM		> 100 µM	> 100 µM	> 100 µM	> 100 µM						> 100 µM	> 100 µM						
O=C(NCc1ccncc1)C1COc2cc(-c3cc(=O)c4ccccc4o3)ccc2O1 (centres undefined)	> 100 µM	> 100 µM		> 100 µM	> 100 µM	> 100 µM	> 100 µM													
O=C(/C=C/c1ccccc1Cl)c1ccc(Cl)cc1Cl	32 µM	32 µM	31.5 µM	30.8 µM	35.6 µM	29.7 µM	32.9 µM													
